Data from patent US9409952B2, “Peptide-compound cyclization method” (Chugai Seiyaku Kabushiki Kaisha, priority 2011, dated 2016).
Where two headings read alike, the source gives them in different places. Starred links: 1 amine or outer side, 2 acyl side, 3 side chain; linkers in the order of their positions; H or OH if unused. Positions of bridges follow the written chain, without caps; N, C: chain ends. Non-standard residues stand in square brackets, D forms with d. Residues, ends and D or L forms follow the SMILES beside them. ξ: configuration not given here. *: point of attachment. NMeF = CN[C@@H](Cc1ccccc1)C(=O)O; NMeI = CC[C@H](C)[C@H](NC)C(=O)O; NMeβAla = CN(CCC(=O)[*:2])[*:1]; NMeL = CN[C@@H](CC(C)C)C(=O)O; ξNMeF = CNC(Cc1ccccc1)C(=O)O; NMeV = CN[C@H](C(=O)O)C(C)C; NMeA = CN[C@@H](C)C(=O)O; Piperidide = C1CCN(*)CC1; dNMeA = CN[C@H](C)C(=O)O; Sar = CNCC(=O)O

Assays:
[1] = Metabolic stability in human hepatic microsome; assay type: in vitro ADME; details: microsomes
[2] = PAMPA (parallel artificial membrane permeability assay); assay type: in vitro ADME; details: PAMPA
How it was run: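 Artificial membrane was 10% (w/v) egg lecithin plus 0.5% (w/v) cholesterol in dodecane on a PVDF filter. A 10 mM DMSO stock was added at 0.5% (v/v) to donor buffer (50 mM MOPSO, pH 6.5, 5.0% glycocholic acid). After 18 h at 37 °C, LC/MS or LC/UV gave donor and acceptor levels for Pe.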

[3] = pH 7.4, human hepatic microsome, NADPH(+), read-out: CL NADPH(+)
[4] = membrane permeation rate (Pe), 50 mM MOPSO buffer pH 6.5 with 5.0% glycocholic acid, 37° C., 18 hours, read-out: iPAMPA Pe

| SMILES | microsomal CLint at 1 uM ([1]; human, pH 7.4, CL NADPH(+)) | Papp at 18 hours, 50 µM ([2]; pH 6.5) | microsomal CLint at 1 uM [1, 3] | Papp at 18 hours, 50 µM [2, 4] |
| --- | --- | --- | --- | --- |
| CC(C)C[C@H]1C(=O)N[C@@H]([C@@H](C)O)C(=O)N(C)[C@@H](Cc2ccccc2)C(=O)N(C)[C@@H](CC(C)C)C(=O)NCC(=O)N(C)[C@@H](C(C)C)C(=O)N[C@@H](Cc2ccccc2)C(=O)N[C@H](C(=O)N(C)[C@@H](Cc2ccccc2)C(=O)N[C@@H](C)C(=O)N2CCCCC2)CC(=O)N(C)[C@H](C)C(=O)N[C@@H](C(C)C)C(=O)N1C [DP-301] ([dNMeA]V[NMeL]T[NMeF][NMeL]G[NMeV]FD[NMeF]A-Piperidide; lactam N-10) | 184 µL/min/mg | 15 ×10⁻⁶ cm/s |  |  |
| CC[C@H](C)[C@H]1C(=O)N[C@H](C(=O)N(C)[C@@H](Cc2ccccc2)C(=O)N(C)[C@@H](Cc2ccccc2)C(=O)N[C@@H](C)C(=O)N2CCCCC2)CC(=O)N(C)CC(=O)N(C)[C@@H](C)C(=O)N[C@@H]([C@@H](C)O)C(=O)N(C)[C@@H](C)C(=O)N(C)[C@@H](CC(C)C)C(=O)N(C)[C@@H](Cc2ccccc2)C(=O)N[C@@H](C(C)C)C(=O)N(C)[C@@H](CC(C)C)C(=O)N1C [DP-302] ([Sar][NMeA]T[NMeA][NMeL][NMeF]V[NMeL][NMeI]D[NMeF][NMeF]A-Piperidide; lactam N-10) | 102 µL/min/mg | 18 ×10⁻⁶ cm/s |  |  |
| CC(C)C[C@H]1C(=O)NCC(=O)N(C)[C@@H](Cc2ccccc2)C(=O)N(C)[C@@H](C(C)C)C(=O)N[C@@H]([C@@H](C)O)C(=O)N[C@H](C(=O)N(C)[C@@H](Cc2ccccc2)C(=O)N(C)[C@@H](Cc2ccccc2)C(=O)N[C@@H](C)C(=O)N2CCCCC2)CC(=O)N(C)CC(=O)N[C@@H](C(C)C)C(=O)N(C)[C@@H](CC(C)C)C(=O)N[C@@H](Cc2ccccc2)C(=O)N1C [DP-303] ([Sar]V[NMeL]F[NMeL]G[NMeF][NMeV]TD[NMeF][NMeF]A-Piperidide; lactam N-10) | 27 µL/min/mg | 1.2 ×10⁻⁶ cm/s |  |  |
| CC(C)C[C@H]1C(=O)N[C@@H]([C@@H](C)O)C(=O)N(C)[C@@H](Cc2ccccc2)C(=O)N(C)[C@@H](CC(C)C)C(=O)NCC(=O)N(C)[C@@H](C(C)C)C(=O)N[C@@H](Cc2ccccc2)C(=O)N[C@H](C(=O)N(C)[C@@H](Cc2ccccc2)C(=O)N[C@@H](C)C(=O)N2CCCCC2)CC(=O)N(C)CC(=O)N[C@@H](C(C)C)C(=O)N1C [DP-304] ([Sar]V[NMeL]T[NMeF][NMeL]G[NMeV]FD[NMeF]A-Piperidide; lactam N-10) | 212 µL/min/mg | 35 ×10⁻⁶ cm/s |  |  |
| CC[C@H](C)[C@H]1C(=O)N[C@H](C(=O)N(C)[C@@H](Cc2ccccc2)C(=O)N[C@@H](C)C(=O)N2CCCCC2)CC(=O)N[C@@H](C)C(=O)N(C)[C@@H](Cc2ccccc2)C(=O)N(C)[C@@H](CC(C)C)C(=O)N[C@@H]([C@@H](C)O)C(=O)N(C)[C@@H](C)C(=O)N[C@@H](C(C)C)C(=O)N(C)[C@@H](CC(C)C)C(=O)N1C [DP-305] (A[NMeF][NMeL]T[NMeA]V[NMeL][NMeI]D[NMeF]A-Piperidide; lactam N-9) | 700 µL/min/mg | 35 ×10⁻⁶ cm/s |  |  |
| CC(C)C[C@H]1C(=O)N[C@@H](C(C)C)C(=O)N[C@H](C(=O)N(C)C(Cc2ccccc2)C(=O)N(C)[C@@H](Cc2ccccc2)C(=O)N[C@@H](C)C(=O)N2CCCCC2)CC(=O)N[C@H](C(C)C)C(=O)N(C)[C@@H](C)C(=O)N(C)[C@@H](Cc2ccccc2)C(=O)N(C)[C@@H](CC(C)C)C(=O)N[C@@H]([C@@H](C)O)C(=O)N(C)CC(=O)N1C (stereo partly drawn) [DP-306] ([dV][NMeA][NMeF][NMeL]T[Sar][NMeL]VD[ξNMeF][NMeF]A-Piperidide; lactam N-9) | 63 µL/min/mg | 56 ×10⁻⁶ cm/s |  |  |
| CC(C)C[C@H]1C(=O)NCC(=O)N[C@H](C(=O)N(C)[C@@H](Cc2ccccc2)C(=O)N[C@@H](C)C(=O)N2CCCCC2)CC(=O)N[C@H](C)C(=O)N[C@@H]([C@@H](C)O)C(=O)N(C)[C@@H](C)C(=O)N(C)[C@@H](Cc2ccccc2)C(=O)N[C@@H](C(C)C)C(=O)N(C)[C@@H](Cc2ccccc2)C(=O)N1C [DP-307] ([dA]T[NMeA][NMeF]V[NMeF][NMeL]GD[NMeF]A-Piperidide; lactam N-9) | 125 µL/min/mg | 22 ×10⁻⁶ cm/s |  |  |
| CC(C)C[C@H]1C(=O)N(C)[C@@H](Cc2ccccc2)C(=O)N(C)[C@@H](Cc2ccccc2)C(=O)NCC(=O)N(C)[C@@H](C)C(=O)N[C@@H]([C@@H](C)O)C(=O)N[C@H](C(=O)N(C)[C@@H](Cc2ccccc2)C(=O)N(C)[C@@H](Cc2ccccc2)C(=O)N[C@@H](C)C(=O)N2CCCCC2)CC(=O)N(C)[C@@H](C)C(=O)N[C@@H](C(C)C)C(=O)N1C [DP-309] ([NMeA]V[NMeL][NMeF][NMeF]G[NMeA]TD[NMeF][NMeF]A-Piperidide; lactam N-9) | 212 µL/min/mg | 26 ×10⁻⁶ cm/s |  |  |
| CC(C)C[C@H]1C(=O)N(C)[C@@H](CC(C)C)C(=O)N[C@H](C(=O)N(C)[C@@H](Cc2ccccc2)C(=O)N[C@@H](C)C(=O)N2CCCCC2)CC(=O)N(C)[C@@H](C)C(=O)N[C@@H](C(C)C)C(=O)N(C)[C@@H](Cc2ccccc2)C(=O)N(C)CC(=O)N[C@@H]([C@@H](C)O)C(=O)N(C)[C@@H](C)C(=O)N1C [DP-310] ([NMeA]V[NMeF][Sar]T[NMeA][NMeL][NMeL]D[NMeF]A-Piperidide; lactam N-9) | 143 µL/min/mg | 35 ×10⁻⁶ cm/s |  |  |
| CC(C)C[C@H]1C(=O)N[C@@H](Cc2ccccc2)C(=O)N[C@H](C(=O)N(C)[C@@H](Cc2ccccc2)C(=O)N[C@@H](C)C(=O)N2CCCCC2)CC(=O)N(C)[C@@H](C)C(=O)N[C@@H]([C@@H](C)O)C(=O)N(C)[C@@H](C)C(=O)N[C@@H](C(C)C)C(=O)N(C)CC(=O)N(C)[C@@H](Cc2ccccc2)C(=O)N1C [DP-311] ([NMeA]T[NMeA]V[Sar][NMeF][NMeL]FD[NMeF]A-Piperidide; lactam N-9) | 74 µL/min/mg | 48 ×10⁻⁶ cm/s |  |  |
| CC(C)C[C@H]1C(=O)N[C@H](C(=O)N(C)[C@@H](Cc2ccccc2)C(=O)N[C@@H](C)C(=O)N2CCCCC2)CC(=O)N(C)[C@H](C)C(=O)N(C)[C@@H](Cc2ccccc2)C(=O)N(C)[C@@H](CC(C)C)C(=O)N[C@@H]([C@@H](C)O)C(=O)N(C)[C@@H](C)C(=O)N(C)[C@@H](CC(C)C)C(=O)N[C@@H](C(C)C)C(=O)N1C [DP-313] ([dNMeA][NMeF][NMeL]T[NMeA][NMeL]V[NMeL]D[NMeF]A-Piperidide; lactam N-9) | 61 µL/min/mg | 21 ×10⁻⁶ cm/s |  |  |
| CC(C)C[C@H]1C(=O)N(C)[C@@H](Cc2ccccc2)C(=O)NCC(=O)N(C)[C@@H](Cc2ccccc2)C(=O)N(C)[C@@H](C)C(=O)N[C@@H]([C@@H](C)O)C(=O)N[C@H](C(=O)N(C)[C@@H](Cc2ccccc2)C(=O)N(C)[C@@H](Cc2ccccc2)C(=O)N[C@@H](C)C(=O)N2CCCCC2)CC(=O)N(C)CC(=O)N[C@@H](C(C)C)C(=O)N1C [DP-314] ([Sar]V[NMeL][NMeF]G[NMeF][NMeA]TD[NMeF][NMeF]A-Piperidide; lactam N-9) |  |  | 133 µL/min/mg | 49 ×10⁻⁶ cm/s |
| CC(C)C[C@H]1C(=O)N[C@@H](C(C)C)C(=O)N[C@H](C(=O)N(C)C(Cc2ccccc2)C(=O)N(C)[C@@H](Cc2ccccc2)C(=O)N[C@@H](C)C(=O)N2CCCCC2)CC(=O)N[C@H](C)C(=O)N(C)[C@@H](C)C(=O)N(C)[C@@H](Cc2ccccc2)C(=O)N(C)[C@@H](CC(C)C)C(=O)N[C@@H]([C@@H](C)O)C(=O)N(C)CC(=O)N1C (stereo partly drawn) [DP-315] ([dA][NMeA][NMeF][NMeL]T[Sar][NMeL]VD[ξNMeF][NMeF]A-Piperidide; lactam N-9) | 63 µL/min/mg | 30 ×10⁻⁶ cm/s |  |  |
| CC(C)C[C@H]1C(=O)N(C)[C@@H](Cc2ccccc2)C(=O)N(C)[C@@H](C)C(=O)N[C@@H](Cc2ccccc2)C(=O)N[C@H](C(=O)N(C)[C@@H](Cc2ccccc2)C(=O)N[C@@H](C)C(=O)N2CCCCC2)CC(=O)N(C)CC(=O)N[C@@H]([C@@H](C)O)C(=O)N(C)CC(=O)N[C@@H](C(C)C)C(=O)N1C [DP-316] ([Sar]T[Sar]V[NMeL][NMeF][NMeA]FD[NMeF]A-Piperidide; lactam N-9) | 35 µL/min/mg | 12 ×10⁻⁶ cm/s |  |  |
| CC(C)C[C@H]1C(=O)N(C)[C@@H](C(C)C)C(=O)N[C@@H]([C@@H](C)O)C(=O)N(C)CC(=O)N(C)[C@@H](C)C(=O)N(C)[C@@H](C)C(=O)N[C@@H](C(C)C)C(=O)N[C@H](C(=O)N2CCCCC2)CC(=O)N(C)[C@H](C)C(=O)N(C)[C@@H](C)C(=O)N[C@@H](C)C(=O)N(C)[C@@H](Cc2ccccc2)C(=O)N1C [DP-319] ([dNMeA][NMeA]A[NMeF][NMeL][NMeV]T[Sar][NMeA][NMeA]VD-Piperidide; lactam N-12) |  |  | 12 µL/min/mg | 1 ×10⁻⁶ cm/s |
| CC[C@H](C)[C@@H]1NC(=O)[C@H]([C@@H](C)O)NC(=O)[C@H](Cc2ccccc2)NC(=O)[C@H](CC(C)C)NC(=O)[C@@H](C)NC(=O)C[C@@H](C(=O)N2CCCCC2)NC(=O)[C@H](CC(C)C)NC(=O)[C@H](CC(C)C)N(C)C(=O)[C@H](CC(C)C)NC(=O)CNC(=O)[C@H](Cc2ccccc2)NC1=O [DP-321] ([dA]LFTIFGL[NMeL]LD-Piperidide; lactam N-11) |  |  | 19 µL/min/mg | 6.2 ×10⁻⁶ cm/s |
| CC(C)C[C@H]1C(=O)N(C)[C@@H](C(C)C)C(=O)N(C)[C@@H](C)C(=O)N[C@@H](Cc2ccccc2)C(=O)N(C)[C@@H](C)C(=O)N[C@H](C(=O)N2CCCCC2)CC(=O)N(C)[C@@H](C)C(=O)N[C@@H]([C@@H](C)O)C(=O)N(C)[C@@H](C)C(=O)N[C@@H](C)C(=O)N(C)[C@@H](Cc2ccccc2)C(=O)N1C [DP-322] ([NMeA]T[NMeA]A[NMeF][NMeL][NMeV][NMeA]F[NMeA]D-Piperidide; lactam N-11) |  |  | 74 µL/min/mg | 10 ×10⁻⁶ cm/s |
| CC[C@H](C)[C@@H]1NC(=O)[C@H](CC(C)C)NC(=O)[C@H](CC(C)C)N(C)C(=O)[C@H](CC(C)C)NC(=O)[C@H](CC(C)C)NC(=O)[C@H](Cc2ccccc2)NC(=O)[C@H](CC(C)C)NC(=O)[C@H](Cc2ccccc2)NC(=O)[C@H]([C@@H](C)O)NC(=O)CCN(C)C(=O)C[C@@H](C(=O)N2CCCCC2)NC1=O [DP-323] ([NMeβAla]TFLFLL[NMeL]LID-Piperidide; lactam N-11) |  |  | 182 µL/min/mg | 7.8 ×10⁻⁶ cm/s |
